Legend:
Experiment in all cases: Test Example-1: herbicidal effect by a treatment before weeds are generated under submerged conditions
Assay type in all cases: in vivo
Conditions in all cases: 500 g a.i/ha, pre-emergence treatment, about 15 days after treatment, score 0-5
[1] = tested on: other annual broad leaf weeds (Lindernia procumbens, Rotala indica, Elatine triandra)
Experimental: (§1) Using the formulation prepared according to the methods described above, the herbicidal effect of the bicyclic pyrazolinone derivative of the invention according to the methods shown in Test Examples below was examined. The herbicidal effect with respect to the test weeds or the phytotoxicity with respect to the test crops was examined according to the following criteria, and evaluated in six stage scores of 0 to 5.
(§2) A plastic cup of 30 cm^2 was filled with paddy soil, soil puddling was performed, seeds of Echinochloa oryzicola (barnyard grass), Cyperus difformis (smallflower umbrella plant), Monochoria vaginalis (monochoria), Scirpus juncoides (bulrush), and Eleocharis acicularis (needle spikerush), and Lindernia procumbens (common false pimpernel), Rotala indica (indian toothcup), Elatine triandra (waterwort) as other annual broad leaf weeds were seeded therein, and kept in a submerged state. A wettable powder or an emulsifiable concentrate of the compound of the present invention prepared according to Formulation Example was diluted on the weed seeding day, and a submersing treatment was performed so as to be a predetermined dosage. The herbicidal effect with respect to the test weeds about 15 days after the treatment was evaluated according to the evaluation criteria in six stages of 0 to 5 described above.

[2] = tested on: Cyperus difformis (smallflower umbrella plant)
Experimental: as §1, §2

[3] = tested on: Eleocharis acicularis (needle spikerush)
Experimental: as §1, §2

[4] = tested on: Echinochloa oryzicola (barnyard grass)
Experimental: as §1, §2

[5] = tested on: Monochoria vaginalis (monochoria)
Experimental: as §1, §2

[6] = tested on: Scirpus juncoides (bulrush)
Experimental: as §1, §2

O=c1c(-c2cc(OC(F)F)c(Cl)cc2F)c(Cl)n2n1CCCC2 [Example 1-143]
Herbicidal effect Broadleaf weed [1]: 5 (Herbicidal effect/phytotoxicity was 90% or greater) | Herbicidal effect Cyperus difformis [2]: 5 (Herbicidal effect/phytotoxicity was 90% or greater) | Herbicidal effect Eleocharis acicularis [3]: 5 (Herbicidal effect/phytotoxicity was 90% or greater) | Herbicidal effect Echinochloa oryzicola [4]: 5 (Herbicidal effect/phytotoxicity was 90% or greater) | Herbicidal effect Monochoria vaginalis [5]: 5 (Herbicidal effect/phytotoxicity was 90% or greater) | Herbicidal effect Scirpus juncoides [6]: 5 (Herbicidal effect/phytotoxicity was 90% or greater)

O=c1c(-c2cc(Oc3ccccc3O)c(Cl)cc2F)c(Cl)n2n1CCCC2 [Compound 3-1]
Herbicidal effect Broadleaf weed [1]: 5 (Herbicidal effect/phytotoxicity was 90% or greater) | Herbicidal effect Cyperus difformis [2]: 5 (Herbicidal effect/phytotoxicity was 90% or greater) | Herbicidal effect Eleocharis acicularis [3]: 5 (Herbicidal effect/phytotoxicity was 90% or greater) | Herbicidal effect Echinochloa oryzicola [4]: 5 (Herbicidal effect/phytotoxicity was 90% or greater) | Herbicidal effect Monochoria vaginalis [5]: 5 (Herbicidal effect/phytotoxicity was 90% or greater) | Herbicidal effect Scirpus juncoides [6]: 5 (Herbicidal effect/phytotoxicity was 90% or greater)

O=c1c(-c2ccc(Cl)cc2F)c(Cl)n2n1CCOCC2 [Example 1-129]
Herbicidal effect Broadleaf weed [1]: 5 (Herbicidal effect/phytotoxicity was 90% or greater) | Herbicidal effect Cyperus difformis [2]: 5 (Herbicidal effect/phytotoxicity was 90% or greater) | Herbicidal effect Eleocharis acicularis [3]: 5 (Herbicidal effect/phytotoxicity was 90% or greater) | Herbicidal effect Echinochloa oryzicola [4]: 5 (Herbicidal effect/phytotoxicity was 90% or greater) | Herbicidal effect Monochoria vaginalis [5]: 5 (Herbicidal effect/phytotoxicity was 90% or greater) | Herbicidal effect Scirpus juncoides [6]: 5 (Herbicidal effect/phytotoxicity was 90% or greater)

COCOc1cccc(Oc2cc(-c3c(Cl)n4n(c3=O)CCCC4)c(F)cc2Cl)c1 [Compound 3-14]
Herbicidal effect Broadleaf weed [1]: 5 (Herbicidal effect/phytotoxicity was 90% or greater) | Herbicidal effect Cyperus difformis [2]: 5 (Herbicidal effect/phytotoxicity was 90% or greater) | Herbicidal effect Eleocharis acicularis [3]: 5 (Herbicidal effect/phytotoxicity was 90% or greater) | Herbicidal effect Echinochloa oryzicola [4]: 5 (Herbicidal effect/phytotoxicity was 90% or greater) | Herbicidal effect Monochoria vaginalis [5]: 5 (Herbicidal effect/phytotoxicity was 90% or greater) | Herbicidal effect Scirpus juncoides [6]: 5 (Herbicidal effect/phytotoxicity was 90% or greater)

C=CCOc1cc(Cl)ccc1Oc1cc(-c2c(Cl)n3n(c2=O)CCCC3)c(F)cc1Cl [Compound 3-38]
Herbicidal effect Broadleaf weed [1]: 5 (Herbicidal effect/phytotoxicity was 90% or greater) | Herbicidal effect Cyperus difformis [2]: 5 (Herbicidal effect/phytotoxicity was 90% or greater) | Herbicidal effect Eleocharis acicularis [3]: 5 (Herbicidal effect/phytotoxicity was 90% or greater) | Herbicidal effect Echinochloa oryzicola [4]: 5 (Herbicidal effect/phytotoxicity was 90% or greater) | Herbicidal effect Monochoria vaginalis [5]: 5 (Herbicidal effect/phytotoxicity was 90% or greater) | Herbicidal effect Scirpus juncoides [6]: 5 (Herbicidal effect/phytotoxicity was 90% or greater)

O=c1c(-c2cc(OC3CCCC3)c(F)cc2F)c(Cl)n2n1CCCC2 [Example 1-98]
Herbicidal effect Broadleaf weed [1]: 5 (Herbicidal effect/phytotoxicity was 90% or greater) | Herbicidal effect Cyperus difformis [2]: 5 (Herbicidal effect/phytotoxicity was 90% or greater) | Herbicidal effect Eleocharis acicularis [3]: 5 (Herbicidal effect/phytotoxicity was 90% or greater) | Herbicidal effect Echinochloa oryzicola [4]: 5 (Herbicidal effect/phytotoxicity was 90% or greater) | Herbicidal effect Monochoria vaginalis [5]: 5 (Herbicidal effect/phytotoxicity was 90% or greater) | Herbicidal effect Scirpus juncoides [6]: 5 (Herbicidal effect/phytotoxicity was 90% or greater)

O=c1c(-c2cc(OCC3CCCC3)c(Cl)cc2F)c(Cl)n2n1CCCC2 [Example 1-186]
Herbicidal effect Broadleaf weed [1]: 5 (Herbicidal effect/phytotoxicity was 90% or greater) | Herbicidal effect Cyperus difformis [2]: 5 (Herbicidal effect/phytotoxicity was 90% or greater) | Herbicidal effect Eleocharis acicularis [3]: 5 (Herbicidal effect/phytotoxicity was 90% or greater) | Herbicidal effect Echinochloa oryzicola [4]: 5 (Herbicidal effect/phytotoxicity was 90% or greater) | Herbicidal effect Monochoria vaginalis [5]: 5 (Herbicidal effect/phytotoxicity was 90% or greater) | Herbicidal effect Scirpus juncoides [6]: 5 (Herbicidal effect/phytotoxicity was 90% or greater)

CC(C)(C)OC(=O)COc1cc(-c2c(Cl)n3n(c2=O)CCCC3)c(F)cc1Cl [Example 1-165]
Herbicidal effect Broadleaf weed [1]: 5 (Herbicidal effect/phytotoxicity was 90% or greater) | Herbicidal effect Cyperus difformis [2]: 5 (Herbicidal effect/phytotoxicity was 90% or greater) | Herbicidal effect Eleocharis acicularis [3]: 5 (Herbicidal effect/phytotoxicity was 90% or greater) | Herbicidal effect Echinochloa oryzicola [4]: 5 (Herbicidal effect/phytotoxicity was 90% or greater) | Herbicidal effect Monochoria vaginalis [5]: 5 (Herbicidal effect/phytotoxicity was 90% or greater) | Herbicidal effect Scirpus juncoides [6]: 5 (Herbicidal effect/phytotoxicity was 90% or greater)

CC(C)CCOc1cc(-c2c(Cl)n3n(c2=O)CCCC3)c(F)cc1Cl [Example 1-159]
Herbicidal effect Broadleaf weed [1]: 5 (Herbicidal effect/phytotoxicity was 90% or greater) | Herbicidal effect Cyperus difformis [2]: 5 (Herbicidal effect/phytotoxicity was 90% or greater) | Herbicidal effect Eleocharis acicularis [3]: 5 (Herbicidal effect/phytotoxicity was 90% or greater) | Herbicidal effect Echinochloa oryzicola [4]: 5 (Herbicidal effect/phytotoxicity was 90% or greater) | Herbicidal effect Monochoria vaginalis [5]: 5 (Herbicidal effect/phytotoxicity was 90% or greater) | Herbicidal effect Scirpus juncoides [6]: 5 (Herbicidal effect/phytotoxicity was 90% or greater)

CC1(COc2cc(-c3c(Cl)n4n(c3=O)CCCC4)c(F)cc2Cl)CC(c2ccc(F)cc2)=NO1 (stereo not drawn) [Compound 4-7]
Herbicidal effect Broadleaf weed [1]: 5 (Herbicidal effect/phytotoxicity was 90% or greater) | Herbicidal effect Cyperus difformis [2]: 5 (Herbicidal effect/phytotoxicity was 90% or greater) | Herbicidal effect Eleocharis acicularis [3]: 5 (Herbicidal effect/phytotoxicity was 90% or greater) | Herbicidal effect Echinochloa oryzicola [4]: 5 (Herbicidal effect/phytotoxicity was 90% or greater) | Herbicidal effect Monochoria vaginalis [5]: 5 (Herbicidal effect/phytotoxicity was 90% or greater) | Herbicidal effect Scirpus juncoides [6]: 5 (Herbicidal effect/phytotoxicity was 90% or greater)

CC(C)Oc1ccc(Oc2cc(-c3c(Cl)n4n(c3=O)CCCC4)c(F)cc2Cl)cc1 [Compound 3-13]
Herbicidal effect Broadleaf weed [1]: 5 (Herbicidal effect/phytotoxicity was 90% or greater) | Herbicidal effect Cyperus difformis [2]: 5 (Herbicidal effect/phytotoxicity was 90% or greater) | Herbicidal effect Eleocharis acicularis [3]: 5 (Herbicidal effect/phytotoxicity was 90% or greater) | Herbicidal effect Echinochloa oryzicola [4]: 5 (Herbicidal effect/phytotoxicity was 90% or greater) | Herbicidal effect Monochoria vaginalis [5]: 5 (Herbicidal effect/phytotoxicity was 90% or greater) | Herbicidal effect Scirpus juncoides [6]: 5 (Herbicidal effect/phytotoxicity was 90% or greater)

CCOC(=CC(=O)OC(C)C)COc1cc(-c2c(Cl)n3n(c2=O)CCCC3)c(F)cc1Cl [Compound 2-26]
Herbicidal effect Broadleaf weed [1]: 5 (Herbicidal effect/phytotoxicity was 90% or greater) | Herbicidal effect Cyperus difformis [2]: 5 (Herbicidal effect/phytotoxicity was 90% or greater) | Herbicidal effect Eleocharis acicularis [3]: 5 (Herbicidal effect/phytotoxicity was 90% or greater) | Herbicidal effect Echinochloa oryzicola [4]: 5 (Herbicidal effect/phytotoxicity was 90% or greater) | Herbicidal effect Monochoria vaginalis [5]: 5 (Herbicidal effect/phytotoxicity was 90% or greater) | Herbicidal effect Scirpus juncoides [6]: 5 (Herbicidal effect/phytotoxicity was 90% or greater)

COC(=O)C(C)Oc1cc(-c2c(Cl)n3n(c2=O)CCCC3)c(F)cc1Cl (stereo not drawn) [Example 1-166]
Herbicidal effect Broadleaf weed [1]: 5 (Herbicidal effect/phytotoxicity was 90% or greater) | Herbicidal effect Cyperus difformis [2]: 5 (Herbicidal effect/phytotoxicity was 90% or greater) | Herbicidal effect Eleocharis acicularis [3]: 5 (Herbicidal effect/phytotoxicity was 90% or greater) | Herbicidal effect Echinochloa oryzicola [4]: 5 (Herbicidal effect/phytotoxicity was 90% or greater) | Herbicidal effect Monochoria vaginalis [5]: 5 (Herbicidal effect/phytotoxicity was 90% or greater) | Herbicidal effect Scirpus juncoides [6]: 5 (Herbicidal effect/phytotoxicity was 90% or greater)

From patent US9580444B2, “Polycyclic pyrazolinone derivative and herbicide comprising same as effective component thereof” (priority 2013, dated 2017)
